Experimental data reported in patent US20210261570A1, “ANTIBIOTIC RESISTANCE BREAKERS” (KING'S COLLEGE LONDON, priority 2017, published 2021).
Converted amounts (≈) assume the structure as drawn. “And” between values parts separate entries of the source, which are not always exact repeats. Equal values may be shown once. Read-outs that look alike come from different tables or passages of the source.

Tests used:
[1] = tested on: Staphylococcus aureus ATCC29213; test: Murine model of thigh infection (neutropenic ICR mice); conditions: for decrease of thigh bacterial burden compared to vehicle group: 8 h and 14 h post infection
Text: 40 Male mice used in these study were supplied by Charles River UK and were specific pathogen free. The strain of mouse used was Hsd:ICR (CD-1®), which is a well characterized outbred strain. Mice were 11-15 g on receipt at Evotec's facility and were allowed to acclimatize for minimum of 7 days prior to infection. Mice were approximately 28 g at the start of the study. Mice were housed in sterile individual ventilated cages exposing animals at all times to HEPA filtered sterile air. Mice had free access to food and water (sterile) and had sterile aspen chip bedding. The room temperature was 22° C.±1° C., with a relative humidity of 50-60% and maximum background noise of 56 dB. Mice were exposed to 12 hour light/dark cycles with dawn/dusk phases.
All mice were rendered neutropenic by immunosuppression with cyclophosphamide at 150 mg/kg 4 days before infection and then 100 mg/kg 1 day before infection administered by intraperitoneal injection. The immunosuppression regime leads to neutropenia starting 24 hours post administration of the first injection, which continues throughout the study. Mice were infected approximately 24 hours after the second dose of immunosuppressive agent.
Staphylococcus aureus ATCC29213 was used for the study.
Whilst still under anaesthesia mice were administered a single dose of buprenorphine (0.03 mg/kg) subcutaneously for pain relief.
Test articles and comparator were prepared in stock solutions at 10× concentration as described in Table 20. The stock solutions were prepared in aliquots (1 aliquot per time of dosing) and frozen at −20° C. The solutions were thawed and then diluted in water just before dosing to obtain the appropriate concentration of 5 mg/mL or 2 mg/mL for oral administration at 10 mL/kg of the dose of 50 mg/kg or 20 mg/kg respectively (Table 20). 10% DMSO in water was used as the vehicle
After sacrifice of animal, both posterior thighs were removed, weighed, then homogenised in 2 mL PBS using a Precellys bead beater and the homogenates individually quantitatively cultured on CLED agar to determine the bacterial burdens.
The data from the culture burdens were analysed using appropriate non-parametric statistical models (Kruskal-Wallis using Conover-Inman to make all pairwise comparisons between groups) with StatsDirect software v. 2.7.8., and compared to pre-treatment and vehicle controls.

[2] = target: Safetyscreen44 panel (Homo sapiens, UniProt P21728); conditions: D1 (h) (antagonist radioligand)
Safetyscreen44 panel (Homo sapiens, UniProt P21728), sequence (P21728 whole entry): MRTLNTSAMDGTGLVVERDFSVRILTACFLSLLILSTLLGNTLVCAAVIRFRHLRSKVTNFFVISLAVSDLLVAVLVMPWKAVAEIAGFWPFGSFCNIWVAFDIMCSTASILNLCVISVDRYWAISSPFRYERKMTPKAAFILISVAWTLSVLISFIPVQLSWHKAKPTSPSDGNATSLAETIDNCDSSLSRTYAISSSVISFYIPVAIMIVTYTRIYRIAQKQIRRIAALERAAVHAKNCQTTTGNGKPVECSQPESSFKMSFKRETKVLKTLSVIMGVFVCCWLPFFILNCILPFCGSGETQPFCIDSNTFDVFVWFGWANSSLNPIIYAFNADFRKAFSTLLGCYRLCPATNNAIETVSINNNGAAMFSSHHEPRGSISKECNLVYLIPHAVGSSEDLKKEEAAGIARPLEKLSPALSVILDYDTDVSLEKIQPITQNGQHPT

[3] = tested on: Safetyscreen44 panel
[4] = tested on: Neisseria gonorrhoeae strains; assay type: cell-based
Text: Untreated controls and blank wells were included.

## C[C@H]1COc2c(N3CC[C@@H](Nc4ncccn4)C3)c(F)cc3c(=O)c(C(=O)O)cn1c23 [KSN-82-L22]
[1]; 20 mg/kg group, day 0 (day of infection)
  Bodyweight raw data, individual mouse: 29.4 and 27.2 and 30.5 and 29.7
[1]; 20 mg/kg group, day 1 post infection
  Bodyweight raw data, individual mouse: 29.3 and 29.5 and 27.5 and 31.3 and 31.0
[1]; 20 mg/kg group, day −1 post infection (before treatment)
  Bodyweight raw data, individual mouse: 29.1 and 29.2 and 27.3 and 30.2 and 29.8
[1]; 20 mg/kg group, day −4 post infection (before treatment)
  Bodyweight raw data, individual mouse: 28.7 and 30.2 and 26.9 and 29.8 and 29.7
[1]; 20 mg/kg/dose oral at 2 h, 18 h post infection
  decrease of thigh bacterial burden compared to vehicle group: 5 log10 CFU/g and > 5 log10 CFU/g
[1]; 50 mg/kg group, day 0 (day of infection)
  Bodyweight raw data, individual mouse: 28.2 and 27.8 and 29.3 and 26.6 and 25.6
[1]; 50 mg/kg group, day 1 post infection
  Bodyweight raw data, individual mouse: 29 and 28.1 and 30.1 and 26.1 and 26.4
[1]; 50 mg/kg group, day −1 post infection (before treatment)
  Bodyweight raw data, individual mouse: 27.9 and 29.5 and 29.1 and 26.5 and 26.8
[1]; 50 mg/kg group, day −4 post infection (before treatment)
  Bodyweight raw data, individual mouse: 27.8 and 29.2 and 28.9 and 27.0 and 27.9
[1]; 50 mg/kg/dose oral at 2 h, 18 h post infection
  decrease of thigh bacterial burden compared to vehicle group: > 5 log10 CFU/g
[1]; 20 and 50 mg/kg, 18 h post infection
  thigh bacterial burden, result in words: significantly decreased bacterial burden
[1]; infected neutropenic mice, treated groups
  body weights following infection: slightly increased
[1]; substance at 20 mg/kg
  Statistic analysis of thigh burden, P versus ML-83-009 20 mg/kg: P < 0.0001
  Statistic analysis of thigh burden, P versus ML-83-009 50 mg/kg: P = 0.0002
  Statistic analysis of thigh burden, P versus Pre treatment: P = 0.0139
  Statistic analysis of thigh burden, P versus Vehicle: P < 0.0001
[1]; substance at 50 mg/kg
  Statistic analysis of thigh burden, P versus ML-83-009 20 mg/kg: P < 0.0001
  Statistic analysis of thigh burden, P versus ML-83-009 50 mg/kg: P < 0.0001
  Statistic analysis of thigh burden, P versus Pre treatment: P = 0.0026
  Statistic analysis of thigh burden, P versus Vehicle: P < 0.0001
[2]
  % inhibition: −15.4033%
[3]; KV channel (antagonist radioligand)
  % inhibition: −4.644%
[3]; alpha 2A (h) (antagonist radioligand)
  % inhibition: 4.4791%
[4]; strain 2007NG046, resistance PEN-R CFM-R CPD-R CIP-R
  MIC: 4 mg/L (≈ 9.4 µM)
[4]; strain 2008NG057, resistance PEN-R CFM-R CPD-R CIP-R
  MIC: 2 mg/L (≈ 4.7 µM)
[4]; strain 2008NG097, resistance PEN-R CFM-R CPD-R CIP-R
  MIC: 2 mg/L (≈ 4.7 µM)
[4]; strain 2009NG514, resistance PEN-R CPD-R CIP-R
  MIC: 2 mg/L (≈ 4.7 µM)
[4]; strain 2010NG122, resistance PEN-R CFM-R CIP-R
  MIC: 2 mg/L (≈ 4.7 µM)
[4]; strain ATCC 49226, resistance PEN-I TET-I
  MIC: ≤0.03125 mg/L
[4]; strain ATCC 700825, resistance —
  MIC: ≤0.03125 mg/L
[4]; strain BAA-1833, resistance PEN-I TET-I
  MIC: ≤0.03125 mg/L
[4]; strain BAA-1838, resistance —
  MIC: ≤0.03125 mg/L
[4]; strain CCUG 57595, resistance —
  MIC: ≤0.03125 mg/L
[4]; strain CCUG 57596, resistance CIP-I PEN-I TET-R
  MIC: 0.125 mg/L (≈ 0.294 µM)
[4]; strain CCUG 57597, resistance FEP-NS FOX-I CAZ-NS CIP-R OFX-R PEN-R TET-R
  MIC: 2 mg/L (≈ 4.7 µM)
[4]; strain CCUG 57598, resistance FOX-R CAZ-NS CRO-NS CIP-R OFX-R PEN-R TET-R
  MIC: 2 mg/L (≈ 4.7 µM)
[4]; strain CCUG 57599, resistance CIP-R OFX-R PEN-R TET-R
  MIC: 0.5 mg/L (≈ 1.18 µM)
[4]; strain CCUG 57600, resistance CIP-R OFX-R PEN-R TET-R
  MIC: 1 mg/L (≈ 2.35 µM)
[4]; strain CCUG 57601, resistance PEN-R TET-R
  MIC: ≤0.03125 mg/L
[4]; strain CCUG 57602, resistance PEN-I TET-I
  MIC: 0.0625 mg/L (≈ 0.147 µM)
[4]; strain FDA-CDC AR-BANK#0165, resistance CIP-R PEN-I TET-R
  MIC: 2 mg/L (≈ 4.7 µM)
[4]; strain FDA-CDC AR-BANK#0166, resistance CIP-R PEN-I TET-R
  MIC: 2 mg/L (≈ 4.7 µM)
[4]; strain FDA-CDC AR-BANK#0167, resistance CIP-S PEN-S TET-I
  MIC: ≤0.03125 mg/L
[4]; strain FDA-CDC AR-BANK#0168, resistance CIP-R PEN-I TET-R
  MIC: 1 mg/L (≈ 2.35 µM)
[4]; strain FDA-CDC AR-BANK#0169, resistance CIP-R PEN-I TET-R
  MIC: 2 mg/L (≈ 4.7 µM)
[4]; strain FDA-CDC AR-BANK#0170, resistance CIP-R PEN-I TET-R
  MIC: 2 mg/L (≈ 4.7 µM)
[4]; strain FDA-CDC AR-BANK#0171, resistance CIP-R PEN-I TET-R
  MIC: 1 mg/L (≈ 2.35 µM)
[4]; strain FDA-CDC AR-BANK#0172, resistance CIP-R PEN-R TET-R
  MIC: 1 mg/L (≈ 2.35 µM)
